The results in this text go back to PubChem BioAssay AID1745844 (Carcinogenic Potency Database (CPDB), 2022).

For this data set, the system named is rodent lifetime carcinogenesis bioassay, tumor incidence TD50. Kind of data set: carcinogenic potency in animals, long-term in vivo studies, CPDB compilation (AID 1745844).

The structures appear in SMILES notation. The source made the active and inactive calls. No rule for the calls is given here.

Turning to `Cc1cc2c(nc1N)[nH]c1ccccc12`, the TD50 by setting is: (mouse, strain CDF1, females, in feed, site: blood vessels, lesion: hemangioendothelial sarcoma, dosed 84 weeks, study length 84 weeks) 38.6 mg/kg/day; (mouse, strain CDF1, females, in feed, site: liver, lesion: hepatocellular adenoma, dosed 84 weeks, study length 84 weeks) 118 mg/kg/day; (mouse, strain CDF1, females, in feed, site: liver, lesion: hepatocellular carcinoma, dosed 84 weeks, study length 84 weeks) 98.9 mg/kg/day; (mouse, strain CDF1, females, in feed, site: liver, lesion: several types, types named in the paper, dosed 84 weeks, study length 84 weeks) 38.6 mg/kg/day; (mouse, strain CDF1, females, in feed, site: lung, lesion: adenoma, dosed 84 weeks, study length 84 weeks) 1840 mg/kg/day; (mouse, strain CDF1, males, in feed, site: blood vessels, lesion: hemangioendothelial sarcoma, dosed 73 weeks, study length 73 weeks) 15.6 mg/kg/day. For the same compound, the TD50 is 90.9 mg/kg/day (mouse, strain CDF1, males, in feed, site: liver, lesion: hepatocellular adenoma, dosed 73 weeks, study length 73 weeks); 127 mg/kg/day (mouse, strain CDF1, males, in feed, site: liver, lesion: hepatocellular carcinoma, dosed 73 weeks, study length 73 weeks); 43.5 mg/kg/day (mouse, strain CDF1, males, in feed, site: liver, lesion: several types, types named in the paper, dosed 73 weeks, study length 73 weeks); 1180 mg/kg/day (mouse, strain CDF1, males, in feed, site: lung, lesion: adenoma, dosed 73 weeks, study length 73 weeks); 11.7 mg/kg/day (rat, strain F344/DuCrj, males, in feed, site: liver, lesion: hepatocellular carcinoma, dosed 100 weeks, study length 100 weeks); 8.7 mg/kg/day (rat, strain F344/DuCrj, males, in feed, site: pancreas, lesion: acinar-cell adenoma, dosed 100 weeks, study length 100 weeks). Moreover, the TD50 is, setting by setting: (rat, strain F344/DuCrj, males, in feed, site: pancreatic islets, lesion: islet-cell adenoma, dosed 100 weeks, study length 100 weeks) 48.1 mg/kg/day; (rat, strain F344/DuCrj, males, in feed, site: salivary gland, lesion: fibrosarcoma, dosed 100 weeks, study length 100 weeks) 73.5 mg/kg/day; (rat, strain F344/DuCrj, males, in feed, site: subcutaneous tissue, lesion: fibroma, dosed 100 weeks, study length 100 weeks) 6.7 mg/kg/day; (rat, strain F344/DuCrj, males, in feed, site: urinary bladder, lesion: transitional-cell carcinoma, dosed 100 weeks, study length 100 weeks) 28.6 mg/kg/day.
With `CC(Oc1cc(Cl)c(Cl)cc1Cl)C(=O)O` (stereo not given), the carcinogen call reads like this: (mouse, strain B6AKF1, females, oral dosing, site: any site (literature study), lesion: several types, types named in the paper, dosed 76 weeks, study length 76 weeks) “negative (inactive)”; (mouse, strain B6AKF1, females, oral dosing, site: liver, lesion: hepatoma, dosed 76 weeks, study length 76 weeks) “negative (inactive)”; (mouse, strain B6AKF1, females, oral dosing, site: lung, lesion: adenoma, dosed 76 weeks, study length 76 weeks) “negative (inactive)”; (mouse, strain B6AKF1, males, oral dosing, site: any site (literature study), lesion: several types, types named in the paper, dosed 76 weeks, study length 76 weeks) “negative (inactive)”; (mouse, strain B6AKF1, males, oral dosing, site: liver, lesion: hepatoma, dosed 76 weeks, study length 76 weeks) “negative (inactive)”; (mouse, strain B6AKF1, males, oral dosing, site: lung, lesion: adenoma, dosed 76 weeks, study length 76 weeks) “negative (inactive)”. Besides, the carcinogen call (mouse, strain B6C3F1, females, oral dosing, site: liver, lesion: hepatoma, dosed 76 weeks, study length 76 weeks) was “negative (inactive)” and the carcinogen call (mouse, strain B6C3F1, females, oral dosing, site: lung, lesion: several types, types named in the paper, dosed 76 weeks, study length 76 weeks) was “negative (inactive)”. The TD50 (mouse, strain B6C3F1, females, oral dosing, site: any site (literature study), lesion: several types, types named in the paper, dosed 76 weeks, study length 76 weeks) was 52.6 mg/kg/day (inactive); the TD50 (mouse, strain B6C3F1, males, oral dosing, site: any site (literature study), lesion: several types, types named in the paper, dosed 76 weeks, study length 76 weeks) was 9.07 mg/kg/day (inactive); the TD50 (mouse, strain B6C3F1, males, oral dosing, site: liver, lesion: hepatoma, dosed 76 weeks, study length 76 weeks) was 16.6 mg/kg/day (inactive); the TD50 (mouse, strain B6C3F1, males, oral dosing, site: lung, lesion: adenoma, dosed 76 weeks, study length 76 weeks) is 95.2 mg/kg/day (inactive).
As for `COc1cc(OC)c2c3c(c(=O)oc2c1)CCC3=O`, the carcinogen call (rat, strain Fischer, males, by gavage, site: liver, lesion: one or several types, types not named, dosed 52 weeks, study length 74 weeks) was “negative (inactive)”.
Consider `C=CCOC(=O)c1ccccc1C(=O)OCC=C`, for which the TD50 is, setting by setting: (mouse, strain B6C3F1, females, by gavage, site: any site (literature study), lesion: several types, types named in the paper, dosed 103 weeks, study length 106 weeks) 10100 mg/kg/day; (mouse, strain B6C3F1, females, by gavage, site: forestomach, lesion: papilloma, NOS, dosed 103 weeks, study length 106 weeks) 2730 mg/kg/day; (mouse, strain B6C3F1, females, by gavage, site: liver, lesion: hepatocellular adenoma + hepatocellular carcinoma + neoplastic nodule, dosed 103 weeks, study length 106 weeks) 2930 mg/kg/day; (mouse, strain B6C3F1, females, by gavage, site: lung, lesion: alveolar/bronchiolar adenoma + alveolar/bronchiolar carcinoma, dosed 103 weeks, study length 106 weeks) 4180 mg/kg/day; (mouse, strain B6C3F1, males, by gavage, site: all sites, lesion: malignant lymphoma, NOS, dosed 103 weeks, study length 106 weeks) 816 mg/kg/day; (mouse, strain B6C3F1, males, by gavage, site: any site (literature study), lesion: several types, types named in the paper, dosed 103 weeks, study length 106 weeks) 717 mg/kg/day. The TD50 by setting is: (mouse, strain B6C3F1, males, by gavage, site: forestomach, lesion: papilloma, NOS, dosed 103 weeks, study length 106 weeks) 2460 mg/kg/day; (mouse, strain B6C3F1, males, by gavage, site: liver, lesion: hepatocellular adenoma + hepatocellular carcinoma + neoplastic nodule, dosed 103 weeks, study length 106 weeks) 6680 mg/kg/day; (mouse, strain B6C3F1, males, by gavage, site: liver, lesion: hepatocellular adenoma, dosed 103 weeks, study length 106 weeks) 2450 mg/kg/day; (mouse, strain B6C3F1, males, by gavage, site: lung, lesion: alveolar/bronchiolar adenoma + alveolar/bronchiolar carcinoma, dosed 103 weeks, study length 106 weeks) 8520 mg/kg/day; (rat, strain Fischer 344, females, by gavage, site: all sites, lesion: mononuclear-cell leukemia, dosed 103 weeks, study length 104 weeks) 138 mg/kg/day; (rat, strain Fischer 344, females, by gavage, site: any site (literature study), lesion: several types, types named in the paper, dosed 103 weeks, study length 104 weeks) 163 mg/kg/day. The TD50 (rat, strain Fischer 344, males, by gavage, site: any site (literature study), lesion: several types, types named in the paper, dosed 103 weeks, study length 104 weeks) was 2990 mg/kg/day (inactive).
Turning to `O[C@@H]([C@H](O)[C@H](O)CBr)[C@H](O)CBr`, the TD50 reads like this: (mouse, strain Swiss, females, i.p., site: adrenal gland, lesion: cortical adenoma, dosed 26 weeks, study length 78 weeks) 136 mg/kg/day; (mouse, strain Swiss, females, i.p., site: all sites, lesion: lymphatic leukemia, dosed 26 weeks, study length 78 weeks) 89.8 mg/kg/day; (mouse, strain Swiss, females, i.p., site: all sites, lesion: lymphosarcoma, dosed 26 weeks, study length 78 weeks) 38.4 mg/kg/day; (mouse, strain Swiss, females, i.p., site: any site (literature study), lesion: benign tumor, dosed 26 weeks, study length 78 weeks) 130 mg/kg/day; (mouse, strain Swiss, females, i.p., site: any site (literature study), lesion: malignant tumor, dosed 26 weeks, study length 78 weeks) 11.2 mg/kg/day; (mouse, strain Swiss, females, i.p., site: any site (literature study), lesion: several types, types named in the paper, dosed 26 weeks, study length 78 weeks) 7.67 mg/kg/day. In addition, the TD50 runs as follows: (mouse, strain Swiss, females, i.p., site: lung, lesion: several types, types named in the paper, dosed 26 weeks, study length 78 weeks) 21.4 mg/kg/day; (mouse, strain Swiss, females, i.p., site: subcutaneous tissue, lesion: carcinoma, dosed 26 weeks, study length 78 weeks) 66 mg/kg/day; (mouse, strain Swiss, males, i.p., site: any site (literature study), lesion: benign tumor, dosed 26 weeks, study length 78 weeks) 92.8 mg/kg/day; (mouse, strain Swiss, males, i.p., site: any site (literature study), lesion: malignant tumor, dosed 26 weeks, study length 78 weeks) 8.53 mg/kg/day; (mouse, strain Swiss, males, i.p., site: any site (literature study), lesion: several types, types named in the paper, dosed 26 weeks, study length 78 weeks) 6.03 mg/kg/day; (mouse, strain Swiss, males, i.p., site: liver, lesion: several types, types named in the paper, dosed 26 weeks, study length 78 weeks) 65.7 mg/kg/day. For the same compound, the TD50 (mouse, strain Swiss, males, i.p., site: lung, lesion: several types, types named in the paper, dosed 26 weeks, study length 78 weeks) was 11.4 mg/kg/day; the TD50 (rat, strain Charles River CD (Sprague-Dawley), females, i.p., site: any site (literature study), lesion: malignant tumor, dosed 26 weeks, study length 78 weeks) is 11.5 mg/kg/day; the TD50 (rat, strain Charles River CD (Sprague-Dawley), females, i.p., site: any site (literature study), lesion: several types, types named in the paper, dosed 26 weeks, study length 78 weeks) worked out at 12.5 mg/kg/day; the TD50 (rat, strain Charles River CD (Sprague-Dawley), females, i.p., site: lung, lesion: carcinoma, dosed 26 weeks, study length 78 weeks) came to 84.6 mg/kg/day; the TD50 (rat, strain Charles River CD (Sprague-Dawley), females, i.p., site: mammary gland, lesion: adenocarcinoma, dosed 26 weeks, study length 78 weeks) is 24.9 mg/kg/day; the TD50 (rat, strain Charles River CD (Sprague-Dawley), females, i.p., site: peritoneum, lesion: sarcoma, dosed 26 weeks, study length 78 weeks) is 79.2 mg/kg/day. Further, the TD50 reads like this: (rat, strain Charles River CD (Sprague-Dawley), males, i.p., site: any site (literature study), lesion: benign tumor, dosed 26 weeks, study length 78 weeks) 16.6 mg/kg/day; (rat, strain Charles River CD (Sprague-Dawley), males, i.p., site: any site (literature study), lesion: several types, types named in the paper, dosed 26 weeks, study length 78 weeks) 7.95 mg/kg/day; (rat, strain Charles River CD (Sprague-Dawley), males, i.p., site: mammary gland, lesion: fibroadenoma, dosed 26 weeks, study length 78 weeks) 255 mg/kg/day; (rat, strain Charles River CD (Sprague-Dawley), males, i.p., site: peritoneum, lesion: sarcoma, dosed 26 weeks, study length 78 weeks) 30.9 mg/kg/day; (rat, strain Charles River CD (Sprague-Dawley), males, i.p., site: skin, lesion: several types, types named in the paper, dosed 26 weeks, study length 78 weeks) 103 mg/kg/day.
